These results are taken from patent publication US11351130B2, “Prevention and reversal of inflammation induced DNA damage” (Indiana University Research and Technology Corporation, priority 2017, dated 2022).

The test system of data set [1] is sensory neuronal cultures. As to the kind of experiment: Neuronal cell viability (trypan blue exclusion). Type of data set: cell-based. Here is the method: (§1) Primary cultures of sensory neurons were harvested and maintained as previously described (Vasko et al., 2005). Briefly, adult male Sprague-Dawley rats (150-175 g; Harlan, Indianapolis, Ind.) were euthanized by CO2 asphyxiation and dorsal root ganglia (DRG) dissected from all spinal levels, transferred to into a collagenase solution (1 mg/ml), incubated for 1 hour at 37° C., then dissociated by mechanical agitation. Approximately 30,000 cells or 60,000 cells were plated into each well of 12-well or 6-well culture plates, respectively. All culture dishes were precoated with poly-D-lysine and laminin. Cells were maintained in F-12 media supplemented with 10% horse serum, 2 mM glutamine, 100 μg/ml Normocin™, 50 μg/ml penicillin, 50 μg/ml streptomycin, 50 μM 5-fluoro-2′-deoxyuridine (Invitrogen), 150 μM uridine, and 30 ng/ml of NGF in 3% CO2 at 37° C. Growth medium was changed every other day. Experiments were performed after cells were maintained in culture for 12-14 days.
Sensory neuronal culture trypan blue exclusion analysis was performed as previously described (Vasko et al., 2011). Cells were detached by adding a 0.05% trypsin-EDTA solution and media to each well. An equal volume of 0.4% (w/v) trypan blue in PBS was added to the cell suspension and the numbers of living cells (i.e., those that exclude the dye) were counted under a phase contrast microscope using a hemacytometer. Percent survival was calculated as the percent of live cells divided by the total cell number (including dead and live cells).

In data set [2] the target is T1, Ref-1/APE1 (Homo sapiens, UniProt P27695).
T1 construct: endogenous in cells
As to the kind of experiment: Ref-1/APE1 endonuclease activity in tumor cells. The data set is classed as cell-based.

Data set [3] concerns sensory neurons in culture. Type of data set: cell-based, rat. On the procedure:
as §1
For release experiments, cell cultures were washed with HEPES buffer consisting of (in mM) 25 HEPES, 135 NaCl, 3.5 KCl, 2.5 CaCl2, 1 MgCl2, 3.3 D-glucose, and 0.1% bovine serum albumin, pH 7.4 and maintained at 37° C. They then were incubated for successive 10-minute intervals with 0.4 ml of HEPES buffer alone (basal release), with buffer containing 30 nM capsaicin, then with buffer alone (to assess return to basal release). After each incubation, the buffer was removed and the amount of immunoreactive calcitonin-gene related peptide (CGRP) in each sample was measured using radioimmunoassay (RIA) as previously described (Chen et al., 1996). At the end of the release protocol, CGRP is extracted from the cultures and total content measured using RIA.

The next data set is described as follows: Pharmacokinetics (PK). The note with it: in vivo. On the procedure:
(§2) PK studies were performed in the IU Simon Cancer Center Clinical Pharmacology Analytical Core (CPAC), as previously described for E3330 (Fishel et al., 2011) and standards for the compounds used. P450 metabolism studies using human microsomes were also performed in CPAC directed by Dr. David Jones.

Another data set relates to DRG. As to the kind of experiment: Cisplatin ± APX3330 in neuroblastoma tumor-bearing mice. The data set is classed as in vivo. From the text:
Neuroblastoma cells were implanted subcutaneously into the right flanks of 6-wk old male NSG mice and allowed to proliferate until tumor volumes ≥150 mm^3. Mice were then randomized for treatment with cisplatin±APX3330 treatment.

A short description of data set [4]: P450 metabolism analysis using human microsomes. Type of data set: in vitro ADME. The note with it: human. On the procedure: as §2
Data set [5] has as its target T2, Ref-1/APE1 (Rattus norvegicus, UniProt P43138).
T2 construct: When isolated sensory neurons were exposed to APX3330; endogenous in cells; host or cells: isolated sensory neurons
As to the kind of experiment: Ref-1/APE1 endonuclease activity in isolated sensory neurons. The data set is classed as cell-based.

The test system of another data set is NFκB. In words: NF-κB luciferase reporter transactivation assay. The note with it: read-out: inhibition of NFκB binding to the reporter construct, IC50. The data set is classed as cell-based. On the procedure:
Reporter assays were performed as previously described (Georgiadis et al., 2008; Kelley et al., 2011; Cardoso et al., 2012b; Luo et al., 2012). Cells were transfected with NF-κB-Luciferase construct containing an NF-κB-response promoter and driving the expression of a luciferase gene and a Renilla luciferase control reporter vector pRL-CMV. After a 24-hour transfection period, cells were lysed, and Firefly and Renilla luciferase activities were assayed using Renilla luciferase activity for normalization. All of the transfection experiments were performed in triplicate and repeated at least three times in independent experiments. Data are expressed as mean±standard error from a representative experiment, and Student's t tests were performed.

T1 sequence (P27695 whole entry): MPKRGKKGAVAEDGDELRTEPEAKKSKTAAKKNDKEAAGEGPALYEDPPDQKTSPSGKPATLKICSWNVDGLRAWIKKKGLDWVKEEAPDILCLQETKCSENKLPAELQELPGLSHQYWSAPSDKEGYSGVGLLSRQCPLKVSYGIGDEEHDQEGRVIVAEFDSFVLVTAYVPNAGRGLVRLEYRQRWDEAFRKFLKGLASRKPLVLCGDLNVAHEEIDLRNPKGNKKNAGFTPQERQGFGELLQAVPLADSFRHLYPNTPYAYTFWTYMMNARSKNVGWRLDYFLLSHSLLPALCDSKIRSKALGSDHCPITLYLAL
T2 sequence (P43138 whole entry): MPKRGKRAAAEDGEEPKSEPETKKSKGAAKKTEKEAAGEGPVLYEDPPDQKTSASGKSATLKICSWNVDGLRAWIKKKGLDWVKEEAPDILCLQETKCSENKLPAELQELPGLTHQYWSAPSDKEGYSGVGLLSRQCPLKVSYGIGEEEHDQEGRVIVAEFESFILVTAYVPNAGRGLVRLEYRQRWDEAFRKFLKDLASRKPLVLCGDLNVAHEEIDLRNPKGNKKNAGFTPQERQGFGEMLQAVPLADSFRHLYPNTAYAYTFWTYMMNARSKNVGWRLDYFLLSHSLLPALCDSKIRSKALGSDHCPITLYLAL

Regarding `CCCCCCCCC/C(=C\C1=C(C)C(=O)C(OC)=C(OC)C1=O)C(=O)O` [APX3330], the “effect on cisplatin-induced cell death” value in data set [1] (20 μM for 48 hours prior to and throughout the cisplatin treatment (24 hours)) is recorded as “blocked”. In addition, the “cell death / cell viability, drug alone” value in data set [1] (24 hours, E3330 10, 20 or 40 μM, APX2009 various concentrations) was “no significant cell death”. Also, the Ref-1/APE1 endonuclease activity entry at Ref-1/APE1 [2] is given as “not observed in tumor cells”; on Ref-1/APE1 [5], “concentration-dependent increase in Ref-1/APE1 endonuclease activity”. Moreover, the “effect on cisplatin-induced reduction in capsaicin-evoked CGRP release” value in data set [3] (20 μM for 48 hours prior to and throughout exposure to 10 μM cisplatin) is “abolished the reduction in release”. The “basal (resting) release or release of CGRP stimulated by 30 nM capsaicin, drug alone” value in data set [3] (72 hours, E3330 20 μM, APX2009 10 or 20 μM, compared to untreated cells) is given as “no significant change”. Also, the half-life in “Pharmacokinetics (PK)” was 3.6 h; in data set [4], 0.333 h. In the data set on DRG (in vivo (data not shown)), the “cisplatin or oxaliplatin's tumor-killing efficacy” value was “did not affect cisplatin or oxaliplatin's tumor-killing efficacy in vivo”. In addition, in the data set on DRG (in vivo (data not shown)), the “oxidative DNA damage in DRG neurons” value was “protects DRG neurons from oxidative DNA damage”. The “neurotoxicity induced by systemic administration of cisplatin” value in the data set on DRG (tumor-bearing mice) is on record as “attenuated neurotoxicity”. For the same molecule, the IC50 in the data set with NFκB turned out to be 45 µM.
